Data as given in US8207330B2, “Two-photon absorption material and application thereof” (Ricoh Company, Ltd., priority 2008, dated 2012).

Assay: Two-photon absorption cross-sectional area, Z scan method, Examples A (800 nm)
Format: physicochemical
Conditions: tetrahydrofuran solution, femtosecond titanium sapphire laser
Method: Each of the above-given compounds Nos. 1, 2, 4, 5, 6, 7, 10, 11, 15, 16, 17, 20, 24, 25, 27 and 28 of the present invention was dissolved in tetrahydrofuran, and the resultant solution was measured for its two-photon absorption cross-sectional area according to the below-described evaluation method therefor.
The following compound (29) was dissolved in tetrahydrofuran, and the resultant solution was measured for its two-photon absorption cross-sectional area according to the below-described evaluation method therefor.
The following compound (30) was dissolved in tetrahydrofuran, and the resultant solution was measured for its two-photon absorption cross-sectional area according to the below-described evaluation method therefor.
[drawing 66] [Method for Measuring Two-Photon Absorption Cross-Sectional Area]
(§1) FIG. 8 schematically illustrates a system of the method.
(§2) Measuring light source: femtosecond titanium sapphire laser
(§3) Repetition frequency: 80 MHz
(§4) Measuring method: Z scan method
Wavelength of light source: 800 nm
(§5) Inner diameter of cuvette: 10 mm
(§6) Light power for measurement: about 500 mW
(§7) Collection diameter: 40 μm to 50 μm
(§8) A quartz cell filled with each sample solution was placed in a light path through which a focused laser beam was passed. Then, the cell was moved along the light path for Z-scan measurement.
The sample solution was measured for its transmittance, and the thus-obtained value and the following theoretical equation (1) were used to determine a nonlinear absorption coefficient of the sample. T=[ln(1+I0L0β)]/I0L0β (1) where T denotes a transmittance (%), I0 denotes an excited light density [GW/cm^2], L0 denotes a sample cell length [cm], and β denotes a nonlinear absorption coefficient [cm/GW].
The thus-determined nonlinear absorption coefficient and the following equation (2) were used to calculate a two-photon absorption cross-sectional area σ. Note that the unit of σ is GM (1 GM=1×10^−50 cm^4·s·photon^−1). σ=1,000×hvβ/[…] (2)
(§9) where h denotes the Planck's constant [J·s], v denotes a frequency of an incident laser beam [s^−1], NA denotes the Avogadoro's number, and C denotes a concentration of a solution [mol/L].

Compound	Two-photon absorption cross-sectional area
CC1=C(C)c2nc1c(-c1ccc(C#N)cc1)c1[nH]c(c(C)c1C)c(-c1ccc(/C=C/c3ccc(N(c4ccccc4)c4ccc(C)cc4)cc3)cc1)c1nc(c(-c3ccc(C#N)cc3)c3[nH]c(c(C)c3C)c2-c2ccc(/C=C/c3ccc(N(c4ccccc4)c4ccc(C)cc4)cc3)cc2)C(C)=C1C [compound 5]	1,480 GM
Cc1ccc(N(c2ccc(C)cc2)c2ccc(/C=C/c3ccc(C4=c5ccc6[n]5[Ni][n]5c(ccc5C(c5cccc(C7OCC(C)(C)CO7)c5)=C5C=CC4=N5)C(Cl)=C4C=CC(=N4)C=6c4cccc(C5OCC(C)(C)CO5)c4)cc3)cc2)cc1 [compound 6]	730 GM
CCCCCCc1ccc(N(c2ccc(-c3c4nc(c(-c5c(C)cc(C)cc5C)c5[nH]c(cc6nc(c(-c7c(C)cc(C)cc7C)c7[nH]c3c(CC)c7C)C(C)=C6CC)c(CC)c5C)C(C)=C4CC)cc2)c2ccc(-c3c4nc(c(-c5c(C)cc(C)cc5C)c5[nH]c(cc6nc(c(-c7c(C)cc(C)cc7C)c7[nH]c3c(CC)c7C)C(C)=C6CC)c(CC)c5C)C(C)=C4CC)cc2)cc1 [compound 25]	1,020 GM
CCC1=C(CC)c2nc1c(Br)c1[nH]c(c(CC)c1CC)c(-c1ccc([N+](=O)[O-])cc1)c1nc(c(-c3ccc4c(c3)C(C)(C)c3cc(-c5c6nc(c(-c7ccc([N+](=O)[O-])cc7)c7[nH]c(c(Br)c8nc(c(-c9ccc([N+](=O)[O-])cc9)c9[nH]c5c(CC)c9CC)C(CC)=C8CC)c(CC)c7CC)C(CC)=C6CC)ccc3-4)c3[nH]c(c(CC)c3CC)c2-c2ccc([N+](=O)[O-])cc2)C(CC)=C1CC [compound 27]	870 GM
CCC1=C(CC)C2=C(Br)c3c(CC)c(CC)c4[n]3[Zn][n]3c(c(CC)c(CC)c3=C(c3ccc5c(c3)C(C)(C)c3cc(C6=C7N=C(C(CC)=C7CC)C(c7ccc([N+](=O)[O-])cc7)=c7c(CC)c(CC)c8[n]7[Zn][n]7c(c(CC)c(CC)c76)C(c6ccc([N+](=O)[O-])cc6)=C6N=C(C(CC)=C6CC)C=8Br)ccc3-5)C3=NC(=C4c4ccc([N+](=O)[O-])cc4)C(CC)=C3CC)=C(c3ccc([N+](=O)[O-])cc3)C1=N2 [compound 28]	590 GM
COc1ccc(-c2cc(C3=C(c4cc(-c5ccc(OC)cc5)sc4OC)C(F)(F)C(F)(F)C3(F)F)c(OC)s2)cc1 [compound 30, reference compound]	15 GM

Assay: Two-photon absorption cross-sectional area, Z scan method, Examples B
Format: physicochemical
Conditions: tetrahydrofuran solution, femtosecond laser, 780 nm to 960 nm (710 nm to 990 nm)
Method: Each of Compounds (1), (2), (57), (58), (59), (60), (3), (4), (61), (62), (25), (26), (63), (64), (65), (66), (45), (67), (68), (69), (70), (71), (72), (5), (9), (13), (19), (27), (31), (32), (34), (36), (39), (44), (53) and (55) was dissolved in tetrahydrofuran, and the resultant tetrahydrofuran solution was measured for its two-photon absorption cross-sectional area according to the below-described evaluation method therefor.
This measurement was performed under the following conditions:
Sample concentration: 10^−2 mol to 10^−5 mol (this range covering optimal concentrations of the samples (at which measurements are easily performed));
Light path length of cell: 10 mm (corresponding to the inner diameter of cuvette);
Light: variable femtosecond laser having a wavelength of 710 nm to 990 nm; and
Light power: 10 mW to 800 mW.
The following compound (73) was dissolved in tetrahydrofuran, and the resultant solution was measured for its two-photon absorption cross-sectional area according to the below-described evaluation method therefor.
The following compound (74) was dissolved in tetrahydrofuran, and the resultant solution was measured for its two-photon absorption cross-sectional area according to the below-described evaluation method therefor.
[drawing 68] [Method for Measuring Two-Photon Absorption Cross-Sectional Area]
as §1, §2, §3, §4, §5, §6, §7, §8
The sample solution was measured for its transmittance, and the thus-obtained value and the following theoretical equation (I) were used to determine a nonlinear absorption coefficient of the sample. T=[ln(1+I0L0β)]/I0L0β (I)
where T denotes a transmittance (%), I0 denotes an excited light density [GW/cm^2], L0 denotes a sample cell length [cm], and β denotes a nonlinear absorption coefficient [cm/GW].
The thus-determined nonlinear absorption coefficient and the following equation (ii) were used to calculate a two-photon absorption cross-sectional area σ. Note that the unit of σ is GM (1 GM=1×10^−50 cm^4·s·photon^−1). σ=1,000×hvβ/[…] (ii)
as §9

Compound	Two-photon absorption cross-sectional area
CCCCCCC1(CCCCCC)c2cc(-c3c4nc(c(-c5cc(OC)c(OC)c(OC)c5)c5ccc(cc6nc(c(-c7cc(OC)c(OC)c(OC)c7)c7ccc3[nH]7)C=C6)[nH]5)C=C4)ccc2-c2ccc(-c3c4nc(c(-c5cc(OC)c(OC)c(OC)c5)c5ccc([nH]5)c(/C=C/c5ccc(N(c6ccccc6)c6ccccc6)cc5)c5nc(c(-c6cc(OC)c(OC)c(OC)c6)c6ccc3[nH]6)C=C5)C=C4)cc21 [(67)]	990 GM
CCCCCCC1(CCCCCC)c2cc(C3=C4C=CC(=N4)C(c4cc(OC)c(OC)c(OC)c4)=c4ccc5[n]4[Ni][n]4c(ccc43)C(c3cc(OC)c(OC)c(OC)c3)=C3C=CC(=N3)C=5/C=C/c3ccc(N(c4ccccc4)c4ccccc4)cc3)ccc2-c2ccc(C3=c4ccc5[n]4[Ni][n]4c(ccc4C(c4cc(OC)c(OC)c(OC)c4)=C4C=CC3=N4)C=C3C=CC(=N3)C=5c3cc(OC)c(OC)c(OC)c3)cc21 [(68)]	1,020 GM
CCCCCCC1(CCCCCC)c2cc(C3=C4C=CC(=N4)C(c4cc(OC)c(OC)c(OC)c4)=c4ccc5[n]4[Cu][n]4c(ccc43)C(c3cc(OC)c(OC)c(OC)c3)=C3C=CC(=N3)C=5/C=C/c3ccc(N(c4ccccc4)c4ccccc4)cc3)ccc2-c2ccc(C3=c4ccc5[n]4[Cu][n]4c(ccc4C(c4cc(OC)c(OC)c(OC)c4)=C4C=CC3=N4)C=C3C=CC(=N3)C=5c3cc(OC)c(OC)c(OC)c3)cc21 [(69)]	920 GM
CCCCCCC1(CCCCCC)c2cc(C3=C4C=CC(=N4)C(c4cc(OC)c(OC)c(OC)c4)=c4ccc5[n]4[Co][n]4c(ccc43)C(c3cc(OC)c(OC)c(OC)c3)=C3C=CC(=N3)C=5/C=C/c3ccc(N(c4ccccc4)c4ccccc4)cc3)ccc2-c2ccc(C3=c4ccc5[n]4[Co][n]4c(ccc4C(c4cc(OC)c(OC)c(OC)c4)=C4C=CC3=N4)C=C3C=CC(=N3)C=5c3cc(OC)c(OC)c(OC)c3)cc21 [(70)]	900 GM
CC(C)(C)c1c2nc(c(C(C)(C)C)c3ccc([nH]3)c(C(C)(C)C)c3nc(c(C(C)(C)C)c4ccc1[nH]4)C=C3)C=C2 [(73), reference compound]	≈0 GM
COc1ccc(-c2cc(C3=C(c4cc(-c5ccc(OC)cc5)sc4OC)C(F)(F)C(F)(F)C3(F)F)c(OC)s2)cc1 [(74), reference compound]	15 GM

Assay: Two-photon absorption cross-sectional area, Z scan method, Examples C
Format: physicochemical
Conditions: tetrahydrofuran solution, wavelength 800 nm
Method: Compound 1-7 (porphyrin derivative) of the present invention was dissolved in tetrahydrofuran, and the resultant tetrahydrofuran solution was measured for its two-photon absorption cross-sectional area according to the below-described evaluation method therefor.
The following Comparative Compound 1 was dissolved in tetrahydrofuran, and the resultant tetrahydrofuran solution was measured for its two-photon absorption cross-sectional area according to the below-described evaluation method therefor.
The following Comparative Compound 2, having a typical porphyrin structure, was dissolved in tetrahydrofuran, and the resultant tetrahydrofuran solution was measured for its two-photon absorption cross-sectional area in a similar manner.
The following Comparative Compound 3, having a conventional, typical diazaporphyrin structure, was dissolved in tetrahydrofuran, and the resultant tetrahydrofuran solution was measured for its two-photon absorption cross-sectional area.
[drawing 71] [Method for Measuring Two-Photon Absorption Cross-Sectional Area] […]
A quartz cell filled with each sample solution was placed in a light path through which a focused laser beam was passed. […] The sample solution was measured for its transmittance, and the thus-obtained value and the following theoretical equation (I) were used to determine a nonlinear absorption coefficient of the sample. […]

Compound	Two-photon absorption cross-sectional area
COc1ccc(-c2cc(C3=C(c4cc(-c5ccc(OC)cc5)sc4OC)C(F)(F)C(F)(F)C3(F)F)c(OC)s2)cc1 [Comp. Ex. C-1]	15 GM
